# From article PMC5607165, “Synthesis of UDP-apiose in Bacteria: The marine phototroph Geminicoccus roseus and the plant pathogen Xanthomonas pisi” (PLoS ONE, 2017)
# T1: XpUAS (Xanthomonas pisi, UniProt A0A291B0F1)
# T1 construct: gene XpiCFBP4643_06440
# T1 sequence (A0A291B0F1 1-375): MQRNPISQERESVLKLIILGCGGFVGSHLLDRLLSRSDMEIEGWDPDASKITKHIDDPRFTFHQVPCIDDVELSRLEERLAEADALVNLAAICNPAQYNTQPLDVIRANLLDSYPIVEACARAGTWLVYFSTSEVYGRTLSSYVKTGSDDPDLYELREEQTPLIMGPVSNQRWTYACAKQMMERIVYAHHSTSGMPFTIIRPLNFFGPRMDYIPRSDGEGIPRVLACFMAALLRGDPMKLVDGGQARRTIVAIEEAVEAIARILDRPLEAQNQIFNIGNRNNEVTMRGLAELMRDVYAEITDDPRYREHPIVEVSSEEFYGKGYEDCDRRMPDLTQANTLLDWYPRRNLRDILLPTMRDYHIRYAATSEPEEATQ
# B1: GrUAS (Geminicoccus roseus) (protein)
# chain: MRVVILGCGGFVGSHLLDNLLRDESYLIEGWDPEDRKIRQHLDNPRFTLHRSIANAPEALVEVERAIRECDVVVNLAAICNPADYNTRPLSVIRANLFEVYPIVELCAKYKRWLVSFSTSETYGRTIASYLPAGTYDDPELYELREDETPLIMGPIRNQRWTYACAKQMTERLIYAHHDEEGLPFTIIRPLNFFGPRMDYIPTRDGDGVPRVLACFMAALLSGEPMQLVDGGQARRTIVSIYEAVDAIRRVLERPETSQNQIFNIGNPNNEVTIAELADAMRRTYARITGDARYNDHPIVVTTADAFYGAGYEDCDRRMPDISKAERLLGWVPRMSLAEVLYGTMQSYHDTYTAPKAA
# Biological target: T1, XpUAS
# Experiment: HILIC-ESI-MS/MS and 1H NMR of products
# Format: biochemical
# Conditions: 1 mM NAD+, 1 mM UDP-GlcA, 50 mM Tris-HCl pH 7.9, 37 °C; products UDP-apiose and UDP-xylose
row,Molecule,HILIC-ESI-MS/MS and 1H NMR of products
1,O=C(O)[C@H]1O[C@H](OP(=O)(O)OP(=O)(O)OC[C@H]2O[C@@H](n3ccc(=O)[nH]c3=O)[C@H](O)[C@@H]2O)[C@H](O)[C@@H](O)[C@@H]1O [UDP-GlcA],Each purified UAS was shown by HILIC-ESI-MS/MS to convert UDP-GlcA to two UDP-pentose products

# Biological target: T2, CeUAS (Candidatus Entotheonella factor, UniProt W4LSK8)
# T2 construct: gene ETSY1_09345
# Experiment: HILIC-ESI-MS/MS and 1H NMR of products
# Format: biochemical
# Conditions: 1 mM NAD+, 1 mM UDP-GlcA, 50 mM Tris-HCl pH 7.9, 37 °C; products UDP-apiose and UDP-xylose
# T2 sequence (W4LSK8 entry or part of it): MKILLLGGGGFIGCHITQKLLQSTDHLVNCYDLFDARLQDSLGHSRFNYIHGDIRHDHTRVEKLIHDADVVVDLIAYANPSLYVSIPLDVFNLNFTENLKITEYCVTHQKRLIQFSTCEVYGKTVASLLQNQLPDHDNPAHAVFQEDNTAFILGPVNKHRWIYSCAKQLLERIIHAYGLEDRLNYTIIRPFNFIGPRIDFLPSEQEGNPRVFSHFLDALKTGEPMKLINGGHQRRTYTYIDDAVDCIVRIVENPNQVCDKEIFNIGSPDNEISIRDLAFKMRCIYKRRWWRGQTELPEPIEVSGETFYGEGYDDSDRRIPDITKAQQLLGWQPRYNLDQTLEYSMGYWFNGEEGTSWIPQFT
row,Molecule,HILIC-ESI-MS/MS and 1H NMR of products
1,O=C(O)[C@H]1O[C@H](OP(=O)(O)OP(=O)(O)OC[C@H]2O[C@@H](n3ccc(=O)[nH]c3=O)[C@H](O)[C@@H]2O)[C@H](O)[C@@H](O)[C@@H]1O [UDP-GlcA],Each purified UAS was shown by HILIC-ESI-MS/MS to convert UDP-GlcA to two UDP-pentose products

# Biological target: GrUAS (Geminicoccus roseus, UniProt A0A291B0F6)
# Experiment: HPLC, UDP-GlcA consumption with additive
# Format: biochemical
# Conditions: 1 mM UDP-GlcA, 1 mM NAD+, 50 mM Tris-HCl pH 7.9, 37 °C; additive concentration not given; residual activity versus water
# Excerpt: HPLC, UDP-GlcA consumption with additive on GrUAS
row,Molecule,Relative activity (%)^a [%]
1,O=c1ccn([C@@H]2O[C@H](COP(=O)(O)O)[C@@H](O)[C@H]2O)c(=O)[nH]1 [UMP],92.6 ± 5.0
2,Cc1cn([C@H]2C[C@H](O)[C@@H](COP(=O)(O)O)O2)c(=O)[nH]c1=O [TMP],87.9 ± 4.9
3,O=C(O)[C@H]1O[C@H](OP(=O)(O)OP(=O)(O)OC[C@H]2O[C@@H](n3ccc(=O)[nH]c3=O)[C@H](O)[C@@H]2O)[C@H](O)[C@@H](O)[C@H]1O [UDP-galacturonic acid],33.4 ± 9.5
4,Nc1nc2c(ncn2[C@@H]2O[C@H](COP(=O)(O)OP(=O)(O)O)[C@@H](O)[C@H]2O)c(=O)[nH]1 [GDP],85.2 ± 7.9
5,Cc1cn([C@H]2C[C@H](O)[C@@H](COP(=O)(O)OP(=O)(O)O)O2)c(=O)[nH]c1=O [TDP],85.0 ± 4.8
6,NC(=O)c1ccc[n+]([C@@H]2O[C@H](COP(=O)(O)OP(=O)(O)OC[C@H]3O[C@@H](n4cnc5c(N)ncnc54)[C@H](OP(=O)(O)O)[C@@H]3O)[C@@H](O)[C@H]2O)c1 [NADP],79.6 ± 3.3
7,O=c1ccn([C@@H]2O[C@H](COP(=O)(O)OP(=O)(O)O[C@H]3OC[C@@H](O)[C@H](O)[C@H]3O)[C@@H](O)[C@H]2O)c(=O)[nH]1 [UDP-xylose],91.4 ± 5.6
8,Nc1ccn([C@@H]2O[C@H](COP(=O)(O)O)[C@@H](O)[C@H]2O)c(=O)n1 [CMP],93.8 ± 4.5
9,NC(=O)C1=CN([C@@H]2O[C@H](COP(=O)(O)OP(=O)(O)OC[C@H]3O[C@@H](n4cnc5c(N)ncnc54)[C@H](O)[C@@H]3O)[C@@H](O)[C@H]2O)C=CC1 [NADH],105.3 ± 1.9
10,Nc1ccn([C@@H]2O[C@H](COP(=O)(O)OP(=O)(O)O)[C@@H](O)[C@H]2O)c(=O)n1 [CDP],85.3 ± 4.6
11,O=c1ccn([C@@H]2O[C@H](COP(=O)(O)OP(=O)(O)O)[C@@H](O)[C@H]2O)c(=O)[nH]1 [UDP],72.6 ± 5.5
12,O=c1ccn([C@@H]2O[C@H](COP(=O)(O)OP(=O)(O)O[C@H]3OC[C@H](O)[C@H](O)[C@H]3O)[C@@H](O)[C@H]2O)c(=O)[nH]1 [UDP-arabinose],88.5 ± 5.6
13,NC(=O)C1=CN([C@@H]2O[C@H](COP(=O)(O)OP(=O)(O)OC[C@H]3O[C@@H](n4cnc5c(N)ncnc54)[C@H](OP(=O)(O)O)[C@@H]3O)[C@@H](O)[C@H]2O)C=CC1 [NADPH],82.6 ± 0.9
14,Nc1nc2c(ncn2[C@@H]2O[C@H](COP(=O)(O)O)[C@@H](O)[C@H]2O)c(=O)[nH]1 [GMP],94.3 ± 3.7

# Substrate: O=C(O)[C@H]1O[C@H](OP(=O)(O)OP(=O)(O)OC[C@H]2O[C@@H](n3ccc(=O)[nH]c3=O)[C@H](O)[C@@H]2O)[C@H](O)[C@@H](O)[C@@H]1O
# Experiment: HPLC anion exchange, UDP-GlcA depletion
# Format: biochemical, Geminicoccus roseus
# Conditions: 1 mM NAD+, 50 mM Tris-HCl pH 7.9, 37 °C, 7 min
# Excerpt: HPLC anion exchange, UDP-GlcA depletion on GrUAS
Molecule,Km [µM],Vmax [µM/min]
B1,251 ± 44.6,4.22

# Biological target: Geminicoccus roseus UDP-apiose/UDP-xylose synthase (GrUAS), recombinant His6-tagged (Geminicoccus roseus)
# Experiment: SEC; Superdex75 gel filtration of purified recombinant GrUAS; mass estimated from the elution times of standard protein markers; activity of the fractions determined by HPLC; method as previously described [31]
# Conditions: not given
row,Molecule,stoichiometry N
1,"Geminicoccus roseus UDP-apiose/UDP-xylose synthase (GrUAS), recombinant His6-tagged (enzyme)",2
